The values below come from patent publication US20230089867A1, “CYCLIC PENTAMER COMPOUNDS AS PROPROTEIN CONVERTASE SUBTILISIN/KEXIN TYPE 9 (PCSK9) INHIBITORS FOR THE TREATMENT OF METABOLIC DISORDER” (Novartis AG, priority 2018, published 2023).

The test concerns the target human PCSK9 (Homo sapiens, UniProt Q8NBP7). The experiment in a line: PCSK9 ligand binding TR-FRET assay (interference with binding of human PCSK9 to human LDLR). The following applies: for Max % inhibition: PCSK9 FRET assay, efficacy (Amax), 100% = 1 uM unlabeled human PCSK9, 0% = DMSO; for IC50: TR-FRET, human PCSK9 Alexa Fluor 647 / human LDLR extracellular domain-Europium Kryptate, read-out: PCSK9 FRET Assay IC50. Summed up:
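Threefold compound dilutions were pre-incubated 30 min with PCSK9, after which 4 nM Europium Kryptate-tagged human LDLR ectodomain was added for a further 2 h.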

human PCSK9, sequence (Q8NBP7 153-692): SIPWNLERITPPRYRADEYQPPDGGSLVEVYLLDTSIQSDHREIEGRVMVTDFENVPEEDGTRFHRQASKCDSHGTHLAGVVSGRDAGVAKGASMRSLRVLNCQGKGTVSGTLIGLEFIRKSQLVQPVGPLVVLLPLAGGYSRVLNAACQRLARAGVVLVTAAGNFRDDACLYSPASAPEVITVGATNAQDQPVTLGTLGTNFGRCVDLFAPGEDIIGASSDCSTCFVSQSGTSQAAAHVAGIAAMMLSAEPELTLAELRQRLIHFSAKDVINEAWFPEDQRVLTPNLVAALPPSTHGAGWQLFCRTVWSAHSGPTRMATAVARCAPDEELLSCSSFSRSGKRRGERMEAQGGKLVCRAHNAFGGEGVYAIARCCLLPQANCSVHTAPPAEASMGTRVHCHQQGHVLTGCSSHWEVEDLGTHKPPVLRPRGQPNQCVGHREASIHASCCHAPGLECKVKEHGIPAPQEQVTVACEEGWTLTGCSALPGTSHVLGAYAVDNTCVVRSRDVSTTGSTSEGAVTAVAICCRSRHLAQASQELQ
human PCSK9, sequence (Q8NBP7 31-152 partner limits assumed): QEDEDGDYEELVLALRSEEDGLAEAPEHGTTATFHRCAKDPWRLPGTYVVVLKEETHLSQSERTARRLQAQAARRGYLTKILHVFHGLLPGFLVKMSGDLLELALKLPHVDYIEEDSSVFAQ

In the case of `COC[C@@H]1NC(=O)[C@H](C)N(Cc2ccc(Cl)cc2Oc2ccc(-n3cnc(CN(C)C)c3C)cc2)C(=O)C[C@@H](Cc2ccccn2)C(=O)N(C)[C@H]2CCCC[C@@H]2NC(=O)C[C@H](Cc2ccc(Cl)cc2)N(C)C1=O` [Compound 105, (4S,7S,10S,14R,16aS,20aS)-11-(4-chloro-2-(4-(4-((dimethylamino)methyl)-5-methyl-1H-imidazol-1-yl)phenoxy)benzyl)-4-(4-chlorobenzyl)-7-(methoxymethyl)-5,10,16-trimethyl-14-(pyridin-2-ylmethyl)hexadecahydrobenzo[l][1,4,7,11,14]pentaazacyclooctadecine-2,6,9,12,15(3H)-pentaone], the Max % inhibition was determined as 104.44% and the IC50 was 1 nM.
The like results for `C=CC[C@@H]1CC(=O)N(Cc2ccc(C)cc2Oc2ccc(-c3cnc(CN(C)C)n3C)cc2)[C@@H](C)C(=O)N[C@@H](COC)C(=O)N(C)[C@@H](Cc2ccc(Cl)cc2)CC(=O)N[C@@H](C)[C@H](C)N(C)C1=O` [Compound 107, (2S,5S,8S,12S,13S,16R)-16-allyl-8-(4-chlorobenzyl)-1-(2-(4-(2-((dimethylamino)methyl)-1-methyl-1H-imidazol-5-yl)phenoxy)-4-methylbenzyl)-5-(methoxymethyl)-2,7,12,13,14-pentamethyl-1,4,7,11,14-pentaazacyclooctadecane-3,6,10,15,18-pentaone] were, in that order, 100.41% and 1.7 nM.
As to `COC[C@@H]1NC(=O)[C@H](C)N(Cc2ccc(Cl)cc2Oc2ccc(-c3cnc(CN4CCCC4)n3C)cc2)C(=O)C[C@@H](Cc2ccc(F)cc2)C(=O)N(C)[C@@H](C)CNC(=O)C[C@H](Cc2ccc(Cl)cc2)N(C)C1=O` [Compound 108, (2S,5S,8S,13S,16R)-1-(4-chloro-2-(4-(1-methyl-2-(pyrrolidin-1-ylmethyl)-1H-imidazol-5-yl)phenoxy)benzyl)-8-(4-chlorobenzyl)-16-(4-fluorobenzyl)-5-(methoxymethyl)-2,7,13,14-tetramethyl-1,4,7,11,14-pentaazacyclooctadecane-3,6,10,15,18-pentaone], the Max % inhibition was 99.73% and the IC50 was determined as 0.7 nM.
As to `C=CC[C@@H]1CC(=O)N(Cc2ccc(Cl)cc2Oc2ccc(-c3cnc(CN(C)C)n3C)cc2)[C@@H](C)C(=O)N[C@@H](COC)C(=O)N(C)[C@@H](Cc2ccc(Cl)cc2)CC(=O)N[C@H]2CCCC[C@@H]2N(C)C1=O` [Compound 110, (4S,7S,10S,14R,16aS,20aS)-14-allyl-11-(4-chloro-2-(4-(2-((dimethylamino)methyl)-1-methyl-1H-imidazol-5-yl)phenoxy)benzyl)-4-(4-chlorobenzyl)-7-(methoxymethyl)-5,10,16-trimethylhexadecahydrobenzo[l][1,4,7,11,14]pentaazacyclooctadecine-2,6,9,12,15(3H)-pentaone], the Max % inhibition is on record as 99.22% and the IC50 worked out at 1.2 nM.
The matching figures for `COC[C@@H]1NC(=O)[C@H](CCCN2CCCC2)N(Cc2ccc(Cl)cc2Oc2ccc(-c3cnc(CN(C)C)n3C)cc2)C(=O)C[C@@H](Cc2cccc[n+]2[O-])C(=O)N(C)[C@H]2CCCC[C@@H]2NC(=O)C[C@H](Cc2ccc(Cl)cc2)N(C)C1=O` [Compound 111, 2-(((4S,7S,10S,14R,16aS,20aS)-11-(4-chloro-2-(4-(2-((dimethylamino)methyl)-1-methyl-1H-imidazol-5-yl)phenoxy)benzyl)-4-(4-chlorobenzyl)-7-(methoxymethyl)-5,16-dimethyl-2,6,9,12,15-pentaoxo-10-(3-(pyrrolidin-1-yl)propyl)docosahydrobenzo[l][1,4,7,11,14]pentaazacyclooctadecin-14-yl)methyl)pyridine 1-oxide]: 103.17% and 0.9 nM.
Regarding `COC[C@@H]1NC(=O)[C@H](C)N(Cc2ccc(Cl)cc2Oc2ccc(-n3cnc(CN4CC5(COC5)C4)c3C)cc2)C(=O)C[C@@H](Cc2ccccc2)C(=O)N(C)[C@@H](C)CNC(=O)C[C@H](Cc2ccc(Cl)cc2)N(C)C1=O` [Compound 112, (2S,5S,8S,13S,16R)-1-(2-(4-(4-(2-oxa-6-azaspiro[3.3]heptan-6-ylmethyl)-5-methyl-1H-imidazol-1-yl)phenoxy)-4-chlorobenzyl)-16-benzyl-8-(4-chlorobenzyl)-5-(methoxymethyl)-2,7,13,14-tetramethyl-1,4,7,11,14-pentaazacyclooctadecane-3,6,10,15,18-pentaone], the Max % inhibition worked out at 107.46% and the IC50 was found to be 3.2 nM.
On to `COC[C@@H]1NC(=O)[C@H](C)N(Cc2ccc(Cl)cc2Oc2cccc(C(=O)NC3CCNCC3)c2)C(=O)C[C@@H](Cc2ccccc2)C(=O)N(C)[C@@H](C)CNC(=O)C[C@H](Cc2ccc(Cl)cc2)N(C)C1=O` [Compound 113, 3-(2-(((2S,5S,8S,13S,16R)-16-benzyl-8-(4-chlorobenzyl)-5-(methoxymethyl)-2,7,13,14-tetramethyl-3,6,10,15,18-pentaoxo-1,4,7,11,14-pentaazacyclooctadecan-1-yl)methyl)-5-chlorophenoxy)-N-(piperidin-4-yl)benzamide], for which the Max % inhibition was found to be 53.35% and the IC50 turned out to be 299 nM.
The like results for `COC[C@@H]1NC(=O)[C@H](C)N(Cc2ccc(Cl)cc2Oc2ccc(-c3nnc4n3CCNC4)cc2)C(=O)C[C@@H](Cc2ccccc2)C(=O)N(C)[C@@H](C)CNC(=O)C[C@H](Cc2ccc(Cl)cc2)N(C)C1=O` [Compound 114, (2S,5S,8S,13S,16R)-16-benzyl-1-(4-chloro-2-(4-(5,6,7,8-tetrahydro-[1,2,4]triazolo[4,3-a]pyrazin-3-yl)phenoxy)benzyl)-8-(4-chlorobenzyl)-5-(methoxymethyl)-2,7,13,14-tetramethyl-1,4,7,11,14-pentaazacyclooctadecane-3,6,10,15,18-pentaone] were, in that order, 57.46% and 4.5 nM.
As for `COC[C@@H]1NC(=O)[C@H](C)N(Cc2ccc(Cl)cc2Oc2ccc(-c3cnc4c(c3)CNCC4)cc2)C(=O)C[C@@H](Cc2ccccc2)C(=O)N(C)[C@@H](C)CNC(=O)C[C@H](Cc2ccc(Cl)cc2)N(C)C1=O` [Compound 115, (2S,5S,8S,13S,16R)-16-benzyl-1-(4-chloro-2-(4-(5,6,7,8-tetrahydro-1,6-naphthyridin-3-yl)phenoxy)benzyl)-8-(4-chlorobenzyl)-5-(methoxymethyl)-2,7,13,14-tetramethyl-1,4,7,11,14-pentaazacyclooctadecane-3,6,10,15,18-pentaone], the Max % inhibition is given as 72.72% and the IC50 was 5.3 nM.
Regarding `COCC(=O)N1CCn2c(nnc2-c2ccc(Oc3cc(Cl)ccc3CN3C(=O)C[C@@H](Cc4ccccc4)C(=O)N(C)[C@@H](C)CNC(=O)C[C@H](Cc4ccc(Cl)cc4)N(C)C(=O)[C@H](COC)NC(=O)[C@@H]3C)cc2)C1` [Compound 116, (2S,5S,8S,13S,16R)-16-benzyl-1-(4-chloro-2-(4-(7-(2-methoxyacetyl)-5,6,7,8-tetrahydro-[1,2,4]triazolo[4,3-a]pyrazin-3-yl)phenoxy)benzyl)-8-(4-chlorobenzyl)-5-(methoxymethyl)-2,7,13,14-tetramethyl-1,4,7,11,14-pentaazacyclooctadecane-3,6,10,15,18-pentaone], the Max % inhibition is 59.45% and the IC50 was 4.8 nM.
The matching figures for `COCC(=O)N1CCc2ncc(-c3ccc(Oc4cc(Cl)ccc4CN4C(=O)C[C@@H](Cc5ccccc5)C(=O)N(C)[C@@H](C)CNC(=O)C[C@H](Cc5ccc(Cl)cc5)N(C)C(=O)[C@H](COC)NC(=O)[C@@H]4C)cc3)cc2C1` [Compound 117, (2S,5S,8S,13S,16R)-16-benzyl-1-(4-chloro-2-(4-(6-(2-methoxyacetyl)-5,6,7,8-tetrahydro-1,6-naphthyridin-3-yl)phenoxy)benzyl)-8-(4-chlorobenzyl)-5-(methoxymethyl)-2,7,13,14-tetramethyl-1,4,7,11,14-pentaazacyclooctadecane-3,6,10,15,18-pentaone]: 67.25% and 4.2 nM.
The matching figures for `COC[C@@H]1NC(=O)[C@H](C)N(Cc2ccc(Cl)cc2Oc2cccc(C(=O)NC3CCN(C)CC3)c2)C(=O)C[C@@H](Cc2ccccc2)C(=O)N(C)[C@@H](C)CNC(=O)C[C@H](Cc2ccc(Cl)cc2)N(C)C1=O` [Compound 118, 3-(2-(((2S,5S,8S,13S,16R)-16-benzyl-8-(4-chlorobenzyl)-5-(methoxymethyl)-2,7,13,14-tetramethyl-3,6,10,15,18-pentaoxo-1,4,7,11,14-pentaazacyclooctadecan-1-yl)methyl)-5-chlorophenoxy)-N-(1-methylpiperidin-4-yl)benzamide]: 65.13% and 24.6 nM.
On to `CCN(CC)Cc1cn(-c2ccc(Oc3cc(Cl)ccc3CN3C(=O)C[C@@H](Cc4ccccc4)C(=O)N(C)[C@@H](C)CNC(=O)C[C@H](Cc4ccc(Cl)cc4)N(C)C(=O)[C@H](COC)NC(=O)[C@@H]3C)cc2)nn1` [Compound 120, (2S,5S,8S,13S,16R)-16-benzyl-1-(4-chloro-2-(4-(4-((diethylamino)methyl)-1H-1,2,3-triazol-1-yl)phenoxy)benzyl)-8-(4-chlorobenzyl)-5-(methoxymethyl)-2,7,13,14-tetramethyl-1,4,7,11,14-pentaazacyclooctadecane-3,6,10,15,18-pentaone], for which the Max % inhibition is 48.04% and the IC50 was 23.6 nM.
The like results for `COC[C@@H]1NC(=O)[C@H](C)N(Cc2ccc(Cl)cc2Oc2ccc(-c3cnc4n3CCNC4)cc2)C(=O)C[C@@H](Cc2ccccc2)C(=O)N(C)[C@@H](C)CNC(=O)C[C@H](Cc2ccc(Cl)cc2)N(C)C1=O.O=C(O)C(F)(F)F` [Compound 121, (2S,5S,8S,13S,16R)-16-benzyl-1-(4-chloro-2-(4-(5,6,7,8-tetrahydroimidazo[1,2-a]pyrazin-3-yl)phenoxy)benzyl)-8-(4-chlorobenzyl)-5-(methoxymethyl)-2,7,13,14-tetramethyl-1,4,7,11,14-pentaazacyclooctadecane-3,6,10,15,18-pentaone trifluoroacetate] were, in that order, 59.89% and 2.8 nM.
